In patent US10076519B2 (CYTOKINETICS, INC., priority 2010, dated 2018):

system: rabbit skeletal myofibrils (fast skeletal myofibrils); test: Activation of fast skeletal myofibrils (PUMA assay, PK/LDH-coupled ATPase at pCa25); format: biochemical; conditions: AC1.4 determined according to the procedure of Example 39; reported as class symbols
In short: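 Detergent-washed rabbit psoas myofibrils (~90% fast fibres, calcium-regulated) assayed at calcium giving 25% of maximal ATPase rate (pCa25). ADP turnover coupled via pyruvate kinase/lactate dehydrogenase to NADH oxidation, read at 340 nm. Buffer 12 mM PIPES, 2 mM MgCl2, 1 mM DTT, pH 6.8; AC1.4 values derived.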

How did the “Mean AC1.4” value turn out when `Nc1ccc(-c2ccc(NCC3(c4ncccc4F)CCC3)nn2)cc1F` [[6-(4-amino-3-fluorophenyl)pyridazin-3-yl]{[(3-fluoro(2-pyridyl))cyclobutyl]meth-yl}amine] was run?
The value was “A (A=<1 uM)”.

Which “Mean AC1.4” value does the source give for `CC(C)(CNc1ccc(-c2ccc(N)cc2)nn1)c1ccc(F)cc1` [[6-(4-aminophenyl)pyridazin-3-yl][2-(4-fluorophenyl)-2-methylpropyl]amine] here?
Its value is “A (A=<1 uM)”.

With `Nc1ccc(-c2ccc(NCC3(c4ncccc4F)CCC3)nn2)cc1` [[6-(4-aminophenyl)pyridazin-3-yl]{[(3-fluoro(2-pyridyl))cyclobutyl]methyl}amine] as the compound, how does the “Mean AC1.4” value read?
The value was “A (A=<1 uM)”.

`CC(C)(CNc1ccc(-c2ccc(Cl)cc2)nn1)c1ccc(F)cc1` [[6-(4-chlorophenyl)pyridazin-3-yl][2-(4-fluorophenyl)-2-methylpropyl]amine] was tested. Which “Mean AC1.4” value did it give?
Its value is “B (B=1-10 uM)”.

`Nc1ccc(-c2ccc(NCC3(c4ncccc4F)CCC3)nn2)nc1` [[6-(5-amino(2-pyridyl))pyridazin-3-yl]{[(3-fluoro(2-pyridyl))cyclobutyl]methyl}amine] was tested. Which “Mean AC1.4” value did it give?
Its value is “A (A=<1 uM)”.

How did the “Mean AC1.4” value turn out when `CC(C)(CNc1ccc(-c2cc(N)[nH]n2)nn1)c1ccc(F)cc1` [[6-(5-aminopyrazol-3-yl)pyridazin-3-yl][2-(4-fluorophenyl)-2-methylpropyl]amine] was run?
The value was “B (B=1-10 uM)”.

For `CC(C)(CNc1ccc(-c2cccc(N)n2)nn1)c1ccc(F)cc1` [[6-(6-amino(2-pyridyl))pyridazin-3-yl][2-(4-fluorophenyl)-2-methylpropyl]amine], which “Mean AC1.4” value is on record?
Its value is “B (B=1-10 uM)”.

For `CC(C)(CNc1ccc(-c2ccc(N)nc2)nn1)c1ccc(F)cc1` [[6-(6-amino(3-pyridyl))pyridazin-3-yl][2-(4-fluorophenyl)-2-methylpropyl]amine], which “Mean AC1.4” value is on record?
The value was “A (A=<1 uM)”.

For `Nc1ccc(-c2ccc(NCC3(c4ncccc4F)CCC3)nn2)cn1` [[6-(6-amino(3-pyridyl))pyridazin-3-yl]{[(3-fluoro(2-pyridyl))cyclobutyl]methyl}amine], which “Mean AC1.4” value is on record?
The value was “A (A=<1 uM)”.

same assay, conditions: median AC1.4 class, procedure of Example 39

For `Fc1ccc(C2(Nc3ccc(-c4ccncc4F)nn3)CCC2)cc1` [[6-(3-fluoro(4-pyridyl))pyridazin-3-yl][(4-fluorophenyl)cyclobutyl]amine], which “Mean AC1.4” value is on record?
Its value is “B (B=1-10 uM)”.

For `Fc1cccnc1C1(CNc2ccc(-c3ncc(-c4nn[nH]n4)s3)nn2)CCC1` [[6-(5-(2H-1,2,3,4-tetraazol-5-yl)(1,3-thiazol-2-yl))pyridazin-3-yl]{[(3-fluoro(2-pyridyl))cyclobutyl]methyl}amine], which “Mean AC1.4” value is on record?
The value was “B (B=1-10 uM)”.

For `Nc1ccc2nc(-c3ccc(NCC4(c5ncccc5F)CCC4)nn3)sc2n1` [[6-(5-amino(1,3-thiazolino[5,4-b]pyridin-2-yl))pyridazin-3-yl]{[(3-fluoro(2-pyridyl))cyclobutyl]methyl}amine], which “Mean AC1.4” value is on record?
Its value is “B (B=1-10 uM)”.

With `Fc1cccnc1C1(CNc2ccc(-c3nc4ccc(Cl)nc4s3)nn2)CCC1` [[6-(5-chloro(1,3-thiazolino[5,4-b]pyridin-2-yl))pyridazin-3-yl]{[(3-fluoro(2-pyridyl))cyclobutyl]methyl}amine] as the compound, how does the “Mean AC1.4” value read?
The value was “C (C=10-20 uM)”.

How did the “Mean AC1.4” value turn out when `Nc1ncc(-c2ccc(NCC3(c4ncccc4F)CCC3)nn2)cc1F` [[6-(6-amino-5-fluoro(3-pyridyl))pyridazin-3-yl]{[(3-fluoro(2-pyridyl))cyclobutyl]methyl}amine] was run?
Its value is “A (A=<1 uM)”.

With `Fc1cc2[nH]ncc2cc1-c1ccc(NC2(c3ncccc3F)CCC2)nn1` [[6-(6-fluoro(1H-indazol-5-yl))pyridazin-3-yl][(3-fluoro(2-pyridyl))cyclobutyl]amine] as the compound, how does the “Mean AC1.4” value read?
Its value is “B (B=1-10 uM)”.

same assay, conditions: median AC1.4 reported as class; procedure of Example 39

For `Nc1ccc(-c2ccc(NC[C@]3(c4ncccc4F)C[C@H](F)C3)nn2)cn1` [[6-(6-amino(3-pyridyl))pyridazin-3-yl]{[3-fluoro-1-(3-fluoro(2-pyridyl))cyclobutyl]methyl}amine], which “Mean AC1.4” value is on record?
Its value is “A (A=<1 uM)”.

With `NC1CCc2nc(-c3ccc(NCC4(c5ncccc5F)CCC4)nn3)sc2C1` (stereo not shown) [[6-(6-amino(4,5,6,7-tetrahydrobenzothiazol-2-yl))pyridazin-3-yl]{[(3-fluoro(2-pyridyl))cyclobutyl]methyl}amine] as the compound, how does the “Mean AC1.4” value read?
The value was “D (D=>20 uM)”.

With `Cc1cc(-c2ccc(NC[C@]3(c4ncccc4F)C[C@H](F)C3)nn2)cnc1N` [[6-(6-amino-5-methyl(3-pyridyl))pyridazin-3-yl]{[3-fluoro-1-(3-fluoro(2-pyridyl))cyclobutyl]methyl}amine] as the compound, how does the “Mean AC1.4” value read?
Its value is “B (B=1-10 uM)”.

`CN(C)C(=O)c1ccc(NCC2(c3ncccc3F)CCC2)nn1` [[6-({[(3-fluoro(2-pyridyl))cyclobutyl]methyl}ami-no)pyridazin-3-yl]-N,N-dimethylcarboxamide] was tested. Which “Mean AC1.4” value did it give?
The value was “D (D=>20 uM)”.

`O=C(Nc1nncs1)c1ccc(NCC2(c3ncccc3F)CCC2)nn1` [[6-({[(3-fluoro(2-pyridyl))cyclobutyl]methyl}ami-no)pyridazin-3-yl]-N-(1,3,4-thiadiazol-2-yl)carboxamide] was tested. Which “Mean AC1.4” value did it give?
Its value is “B (B=1-10 uM)”.

Which “Mean AC1.4” value does the source give for `O=C(Nc1ncco1)c1ccc(NCC2(c3ncccc3F)CCC2)nn1` [[6-({[(3-fluoro(2-pyridyl))cyclobutyl]methyl}ami-no)pyridazin-3-yl]-N-(1,3-oxazol-2-yl)carboxamide] here?
The value was “D (D=>20 uM)”.

Which “Mean AC1.4” value does the source give for `O=C(Nc1nccs1)c1ccc(NCC2(c3ncccc3F)CCC2)nn1` [[6-({[(3-fluoro(2-pyridyl))cyclobutyl]methyl}ami-no)pyridazin-3-yl]-N-(1,3-thiazol-2-yl)carboxamide] here?
Its value is “A (A=<1 uM)”.

For `O=C(NCc1nccs1)c1ccc(NCC2(c3ncccc3F)CCC2)nn1` [[6-({[(3-fluoro(2-pyridyl))cyclobutyl]methyl}ami-no)pyridazin-3-yl]-N-(1,3-thiazol-2-ylmethyl)carboxamide], which “Mean AC1.4” value is on record?
Its value is “D (D=>20 uM)”.

For `Cn1ccc(NC(=O)c2ccc(NCC3(c4ncccc4F)CCC3)nn2)n1` [[6-({[(3-fluoro(2-pyridyl))cyclobutyl]methyl}ami-no)pyridazin-3-yl]-N-(1-methylpyrazol-3-yl)carboxamide], which “Mean AC1.4” value is on record?
The value was “C (C=10-20 uM)”.

With `O=C(NC1CCCNC1=O)c1ccc(NCC2(c3ncccc3F)CCC2)nn1` (stereo not shown) [[6-({[(3-fluoro(2-pyridyl))cyclobutyl]methyl}ami-no)pyridazin-3-yl]-N-(2-oxo(3-piperidyl))carboxamide] as the compound, how does the “Mean AC1.4” value read?
The value was “D (D=>20 uM)”.

How did the “Mean AC1.4” value turn out when `O=C(NCc1ccccn1)c1ccc(NCC2(c3ncccc3F)CCC2)nn1` [[6-({[(3-fluoro(2-pyridyl))cyclobutyl]methyl}ami-no)pyridazin-3-yl]-N-(2-pyridylmethyl)carboxamide] was run?
The value was “D (D=>20 uM)”.

`O=C(NCc1cccnc1)c1ccc(NCC2(c3ncccc3F)CCC2)nn1` [[6-({[(3-fluoro(2-pyridyl))cyclobutyl]methyl}ami-no)pyridazin-3-yl]-N-(3-pyridylmethyl)carboxamide] was tested. Which “Mean AC1.4” value did it give?
Its value is “C (C=10-20 uM)”.

How did the “Mean AC1.4” value turn out when `O=C(NCc1ccncc1)c1ccc(NCC2(c3ncccc3F)CCC2)nn1` [[6-({[(3-fluoro(2-pyridyl))cyclobutyl]methyl}ami-no)pyridazin-3-yl]-N-(4-pyridylmethyl)carboxamide] was run?
The value was “D (D=>20 uM)”.
